Laboratory results as given in US11905530B2, “Cell encapsulation device comprising a pancreatic progenitor cell population” (ViaCyte, Inc., priority 2009, dated 2024).

How the values were obtained:
[1] = tested on: mice implanted with iPEC grafts; test: Glucose stimulated insulin secretion (GSIS): human C-peptide in serum of mice implanted with iPEC grafts; type: in vivo
Source text: (§1) To determine whether the change in the composition of PEC and iPEC populations affected in vivo function, PEC and iPEC grafts from most of the experiments described in Table 11 were transplanted into mice substantially as previously described herein and in Applicant's other patent and non-patent publications, including Schulz et al. (2012) and Kroon et al (2008), supra and U.S. Pat. Nos. 7,534,608; 7,695,965; 7,993,920 and 8,278,106, supra. Briefly, PEC and iPEC populations were wholly encapsulated with a […] semi-permeable cell encapsulation device, some of which included micro perforations. The devices were manufactured by Applicant and are described in detail in U.S. Pat. No. 8,278,106, entitled ENCAPSULATION OF PANCREATIC CELLS FROM HUMAN PLURIPOTENT STEM CELLS, filed Nov. 13, 2009, the disclosure of which is incorporated herein by reference in its entirety. Glucose stimulated insulin secretion (GSIS) assays were performed starting from about 56 days post-implant. Blood was collected prior to (fasting) and at combinations of 30 and/or 60 minutes after glucose administration. Graft function was assessed by measuring human C-peptide concentrations in the serum in response to glucose administration.
The amount of human C-peptide released into the serum is indicative of the amount of insulin released. C-peptide is a short 31 amino acid peptide connecting or linking A and B-chains of proinsulin and preproinsulin, which is secreted by functioning beta or insulin secreting cells. As discussed previously by Kroon et al. (2008) supra and others, human C-peptide measurements are appropriate for assessing the release of de novo-generated insulin by the implanted cells. […] Human C-peptide was detected in the serum by at least 8 weeks post-implant. With additional weeks of implant and fasting, glucose-stimulated C-peptide levels increased with the peak levels of C-peptide shifting from 60 minutes to 30 minutes post-glucose administration, which is indicative of a more rapid response to glucose challenge as the insulin cells mature.

[2] = tested on: hES-derived cell aggregates; test: Cell aggregate size of hES-derived cell aggregates in suspension culture; type: cell-based, human
Method: Preliminary studies were performed using Heregulin and FGF. In certain of these studies, Rho-kinase inhibitor, Y-27632, was included.

PEC derived from hESC = test: Flow cytometry analysis of PEC derived from hESC and treated with heregulin and/or FGF2; type: cell-based, human
Source text: Table 9 provides a summary of the flow cytometry analysis of PEC cells treated with Hrg1β and FGF2 at stage 3 and/or 4. The endocrine cells are denoted as CHGA positive (or CHGA+) cells and the non-endocrine cells are denoted as CHGA negative (or CHGA−) cells. The endocrine (CHGA+) and non-endocrine cells (CHGA−) may stain positive for other markers, e.g., positive for PDX1 and/or NKX6.1.

[3] = tested on: iPS-derived cell cultures (iPEC); test: Flow cytometry analysis of iPEC populations from heregulin treated iPS-derived cell cultures; type: cell-based, human; details: hIPSC, 30 ng/mL heregulin at stages 3 and 4
Source text: (§2) Changes to the standard method as set forth in Table 7 include, but are not limited to: optimization of the number of times any iPSC is passaged; modulating levels of BMP signaling; modulating iPSC suspension aggregation parameters during expansion and differentiation (e.g. shear force, rotation speed and the like); optimization of the concentrations, time of use and duration of use of growth factors, such as Wnt, Activin and rho-kinase inhibitors; and treatment with other growth factors at various stages 1 through 4 of the differentiation protocol as candidates for improving cell mass, proliferation, differentiation, survival and the like (e.g. ERBB ligands). These many iterative experiments were tested alone, or in combination, to determine how differentiation methods for iPSC during stages 1-4 could be optimized. […] The baseline conditions were similar to those described in Examples 1, 2 and 5 as well as Table 7 herein, except that heregulin was added at stages 3 and 4. Although 30 ng/mL of Hrg1β was used, concentrations ranging from 10 ng/mL to 50 ng/mL, or even greater than 50 ng/mL are suitable. Also, addition of a rho-kinase inhibitor, Y-27632, was maintained in the differentiation cultures as described in Example 2.
(§3) To determine the effect of the addition of heregulin or heregulin and a rho-kinase inhibitor on stage 3 and 4 cell subpopulations, iPEC populations were analyzed by flow cytometry. Table 11 provides a summary of the flow cytometry analysis of various iPEC populations using the formulations set forth in Table 10, as well as such formulations having been modified by increasing the Activin concentration to 200 ng/mL. […] Table 11 also discloses data regarding in vivo function of the cells produced in each experiment.

[4] = tested on: mice implanted with PEC grafts (CyT203 hESC); test: Glucose stimulated insulin secretion (GSIS): human C-peptide in serum of mice implanted with PEC grafts from hESC; type: in vivo; details: experiment 2354; PEC produced from hESC; grafts resulting from heregulin treatment
Source text: as §1
The amount of human C-peptide released into the serum is indicative of the amount of insulin released. […] Human C-peptide was detected in the serum by at least 8 weeks post-implant. […]

iPSC = test: Cell mass of iPSC-derived differentiation cultures for implantation; type: cell-based, human; details: heregulin at stages 3 and 4 without a rho-kinase inhibitor; implantation impossible
Source text: As such, the provision of heregulin alone or a rho-kinase inhibitor alone is not substantially similar to the sum effect of the two combined. That is, alone neither results in robust glucose responsiveness in vivo but combined they produce glucose responsiveness similar to that of hES-derived cells. Accordingly, it appeared that the provision of both heregulin and a rho-kinase inhibitor is synergistic since their combined effect is greater than the sum of the effect of each separately.

PEC (hESC) = test: Flow cytometry analysis of PEC from heregulin treated hESC-derived cell cultures (E2354); type: cell-based, human
Source text: as §2, §3
Under certain conditions, the ratio of subpopulations of cells in the PEC (hESC, E2354) and iPEC (E2314, E2344, E2347) populations were altered. For example, sometimes, the percentage of endocrine (CHGA+) cells decreased and the percentage of non-endocrine cells (CHGA−/NKX6.1+/PDX1+) increased as compared to the baseline (no heregulin) conditions.

Which “in vivo function of graft” value ([1]; rho-kinase inhibitor alone (baseline conditions, no heregulin)) does the source give for `C[C@@H](N)[C@H]1CC[C@H](C(=O)Nc2ccncc2)CC1` [rho-kinase inhibitor, Y-27632, reference compound] here?
The value was “poor in vivo function”.

Which results are given for Fibroblast growth factor 2 [FGF2]?
cell aggregate size ([2]; 3 days of 50 ng/mL FGF2 at stage 3 compared to 2 days): increase in cell aggregate size; CHGA− NKX6.1− PDX1− (Triple Negative/ Residual Cells) (PEC derived from hESC; 50 ng/mL of FGF2 for 2 days at stage 3, control 13.1): 9.15%; CHGA+ (Endocrine) (PEC derived from hESC; 50 ng/mL of FGF2 for 2 days at stage 3, control 32.9): 11.9%; CHGA− NKX6.1+ PDX1+ (Non-endocrine) (PEC derived from hESC; 50 ng/mL of FGF2 for 2 days at stage 3, control 54.01): 79%; CHGA− NKX6.1− PDX1− (Triple Negative/ Residual Cells) (PEC derived from hESC; 50 ng/mL of FGF2 for 3 days at stage 3, control 13.1): 22.7%; CHGA+ (Endocrine) (PEC derived from hESC; 50 ng/mL of FGF2 for 3 days at stage 3, control 32.9): 0.33%; CHGA− NKX6.1+ PDX1+ (Non-endocrine) (PEC derived from hESC; 50 ng/mL of FGF2 for 3 days at stage 3, control 54.01): 76.9%

What does the source list for Heregulin-1β?
CHGA− NKX6.1− PDX1− (Triple Negative/ Residual Cells) ([3]; Exp. E2314, baseline 3.20): 9.88%; CHGA− NKX6.1− PDX1+ (PDX1 only) ([3]; Exp. E2314, baseline 11.32): 16.83%; CHGA+ (Endocrine) ([3]; Exp. E2314, baseline 19.83): 9.00%; CHGA− NKX6.1+ PDX1+ (Non-endocrine) ([3]; Exp. E2314, baseline 65.59): 64.21%; CHGA− NKX6.1− PDX1− (Triple Negative/ Residual Cells) ([3]; Exp. E2344, baseline 1.80): 2.75%; CHGA− NKX6.1− PDX1+ (PDX1 only) ([3]; Exp. E2344, baseline 5.45): 11.23%; CHGA− NKX6.1+ PDX1+ (Non-endocrine) ([3]; Exp. E2344, baseline 36.15): 49.00%; CHGA+ (Endocrine) ([3]; Exp. E2344, baseline 56.51): 36.13%; CHGA− NKX6.1− PDX1− (Triple Negative/ Residual Cells) ([3]; Exp. E2347, baseline 2.11): 1.68%; CHGA− NKX6.1− PDX1+ (PDX1 only) ([3]; Exp. E2347, baseline 10.97): 12.30%; CHGA− NKX6.1+ PDX1+ (Non-endocrine) ([3]; Exp. E2347, baseline 37.16): 68.91%; CHGA+ (Endocrine) ([3]; Exp. E2347, baseline 49.78): 17.27%; CHGA− NKX6.1− PDX1− (Triple Negative/ Residual Cells) ([3]; Exp. E2380, baseline 9.10): 7.03%; CHGA− NKX6.1− PDX1+ (PDX1 only) ([3]; Exp. E2380, baseline 12.08): 17.24%; CHGA− NKX6.1+ PDX1+ (Non-endocrine) ([3]; Exp. E2380, baseline 38.18): 29.72%; CHGA+ (Endocrine) ([3]; Exp. E2380, baseline 41.16): increased rather than decreased; CHGA+ (Endocrine) ([3]; Exp. E2380, baseline 41.16, listed as Hg): 45.91%; increase of serum human C-peptide compared to grafts prepared without heregulin (baseline) ([1]; experiment 2380, 60 minutes post glucose administration): ~5 fold; serum human C-peptide ([1]; experiment 2380, iPEC grafts resulting from heregulin treatment, 60 minutes post glucose administration, baseline 200 pM): 933 pM; serum human C-peptide post glucose administration compared to baseline controls ([1]; grafts resulting from heregulin treatment, in general (FIGS. 7A-7C)): higher levels of serum human C-peptide; serum C-peptide compared to baseline controls [4]: does not show higher levels of serum C-peptide; cell aggregate size ([2]; 10 ng/mL for one day at stage 1, compared to suspension culture without Heregulin-1β, preliminary studies): increased the cell aggregate size; aggregate disk size ([2]; Hrg1β increased from 10 ng/mL to 50 ng/mL at stage 3): aggregate disk size increased; cell mass (iPSC): visibly poor cell mass; CHGA− NKX6.1− PDX1− (Triple Negative/ Residual Cells) (PEC (hESC); Exp. E2354, 30 ng/mL heregulin at stages 3 and 4, baseline 1.75): 1.86%; CHGA− NKX6.1− PDX1+ (PDX1 only) (PEC (hESC); Exp. E2354, 30 ng/mL heregulin at stages 3 and 4, baseline 2.89): 8.10%; CHGA+ (Endocrine) (PEC (hESC); Exp. E2354, 30 ng/mL heregulin at stages 3 and 4, baseline 33.39): 16.18%; CHGA− NKX6.1+ PDX1+ (Non-endocrine) (PEC (hESC); Exp. E2354, 30 ng/mL heregulin at stages 3 and 4, baseline 62.01): 73.00%; CHGA− NKX6.1− PDX1− (Triple Negative/ Residual Cells) (PEC derived from hESC; 10 ng/mL Heregulin-1β at stage 3, control without Hrg and FGF2 13.1, listed as Hrg): 8.55%; CHGA− NKX6.1− PDX1− (Triple Negative/ Residual Cells) (PEC derived from hESC; 10 ng/mL Heregulin-1β at stage 3, control without Hrg and FGF2 13.1, listed as Hrg1β): did decrease; CHGA− NKX6.1+ PDX1+ (Non-endocrine) (PEC derived from hESC; 10 ng/mL Heregulin-1β at stage 3, control without Hrg and FGF2 54.01): 61.2%; CHGA+ (Endocrine) (PEC derived from hESC; 10 ng/mL Heregulin-1β at stage 3, share of PEC population, control without Hrg and FGF2 32.9, listed as Hrg): 30.3%; CHGA+ (Endocrine) (PEC derived from hESC; 10 ng/mL Heregulin-1β at stage 3, share of PEC population, control without Hrg and FGF2 32.9, listed as Hrg1β): not significantly affected; CHGA− NKX6.1− PDX1− (Triple Negative/ Residual Cells) (PEC derived from hESC; 50 ng/mL Heregulin-1β at stage 3, control 13.1, listed as Hrg): 6.9%; CHGA− NKX6.1− PDX1− (Triple Negative/ Residual Cells) (PEC derived from hESC; 50 ng/mL Heregulin-1β at stage 3, control 13.1, listed as Hrg1β): did decrease and more so; CHGA+ (Endocrine) (PEC derived from hESC; 50 ng/mL Heregulin-1β at stage 3, control 32.9): 28.9%; CHGA− NKX6.1+ PDX1+ (Non-endocrine) (PEC derived from hESC; 50 ng/mL Heregulin-1β at stage 3, control 54.01): 64.2%
